The text below walks through data of patent US9592221B2, “Antibacterial agents: aryl myxopyronin derivatives” (priority 2012, dated 2017).

For orientation: pIC50 means the negative decadic logarithm of the IC50, by convention in mol/L.

SMILES strings stand for the structures. pIC50: −log10 of the molar value.

Assay [1] relates to Acinetobacter baumannii ATCC 19606. Briefly: MIC, spiral gradient endpoint assay, A. baumannii. Format: cell-based. As to conditions: ATCC19606; Acinetobacter baumannii ATCC 19606.
Assay [2] deals with Bacillus anthracis Vollum 1b. Briefly: microbe, parasite or virus in culture. Type of assay: cell-based. The settings on record: Bacillus anthracis, VOLLUM1B, read-out: MIC B. anthracis Vollum-1b.
For the next assay, the system named is Yersinia pestis C092. Nature of the assay: microbe, parasite or virus in culture. Format: cell-based. The settings on record: Yersinia pestis, C092, read-out: MIC Y. pestis C092.
Assay [3] concerns Mycobacterium tuberculosis H37Rv. Briefly: MIC, microplate Alamar Blue assay, M. tuberculosis. Format: cell-based. (In general: Alamar Blue is a resazurin reagent that responds to reducing activity.)
Assay [4] concerns Francisella tularensis SCHU4. Briefly: microbe, parasite or virus in culture. Format: cell-based. As to conditions: Francisella tularensis, SCHU4, read-out: MIC F. tularensis SCHU4.
For assay [5], the system named is Staphylococcus aureus ATCC 12600. Nature of the assay: MIC, spiral gradient endpoint assay, S. aureus ATCC 12600. As to conditions: ATCC12600; Staphylococcus aureus ATCC 12600. Type of assay: cell-based.
The test system of another assay is Burkholderia mallei CHN7. Briefly: microbe, parasite or virus in culture. As to conditions: Burkholderia mallei, CHN7, read-out: MIC B. mallei CHN7. Type of assay: cell-based.
In assay [6] the target is E. coli RNA polymerase σ^70 holoenzyme (Escherichia coli, UniProt P0A8T7+P0A8V2). Nature of the assay: Fluorescence-detected RNA polymerase assay, E. coli RNA polymerase. Format: biochemical. As to conditions: read-out: IC50 E. coli RNAP.
Sequence of E. coli RNA polymerase σ^70 holoenzyme (P0A8T7 whole entry): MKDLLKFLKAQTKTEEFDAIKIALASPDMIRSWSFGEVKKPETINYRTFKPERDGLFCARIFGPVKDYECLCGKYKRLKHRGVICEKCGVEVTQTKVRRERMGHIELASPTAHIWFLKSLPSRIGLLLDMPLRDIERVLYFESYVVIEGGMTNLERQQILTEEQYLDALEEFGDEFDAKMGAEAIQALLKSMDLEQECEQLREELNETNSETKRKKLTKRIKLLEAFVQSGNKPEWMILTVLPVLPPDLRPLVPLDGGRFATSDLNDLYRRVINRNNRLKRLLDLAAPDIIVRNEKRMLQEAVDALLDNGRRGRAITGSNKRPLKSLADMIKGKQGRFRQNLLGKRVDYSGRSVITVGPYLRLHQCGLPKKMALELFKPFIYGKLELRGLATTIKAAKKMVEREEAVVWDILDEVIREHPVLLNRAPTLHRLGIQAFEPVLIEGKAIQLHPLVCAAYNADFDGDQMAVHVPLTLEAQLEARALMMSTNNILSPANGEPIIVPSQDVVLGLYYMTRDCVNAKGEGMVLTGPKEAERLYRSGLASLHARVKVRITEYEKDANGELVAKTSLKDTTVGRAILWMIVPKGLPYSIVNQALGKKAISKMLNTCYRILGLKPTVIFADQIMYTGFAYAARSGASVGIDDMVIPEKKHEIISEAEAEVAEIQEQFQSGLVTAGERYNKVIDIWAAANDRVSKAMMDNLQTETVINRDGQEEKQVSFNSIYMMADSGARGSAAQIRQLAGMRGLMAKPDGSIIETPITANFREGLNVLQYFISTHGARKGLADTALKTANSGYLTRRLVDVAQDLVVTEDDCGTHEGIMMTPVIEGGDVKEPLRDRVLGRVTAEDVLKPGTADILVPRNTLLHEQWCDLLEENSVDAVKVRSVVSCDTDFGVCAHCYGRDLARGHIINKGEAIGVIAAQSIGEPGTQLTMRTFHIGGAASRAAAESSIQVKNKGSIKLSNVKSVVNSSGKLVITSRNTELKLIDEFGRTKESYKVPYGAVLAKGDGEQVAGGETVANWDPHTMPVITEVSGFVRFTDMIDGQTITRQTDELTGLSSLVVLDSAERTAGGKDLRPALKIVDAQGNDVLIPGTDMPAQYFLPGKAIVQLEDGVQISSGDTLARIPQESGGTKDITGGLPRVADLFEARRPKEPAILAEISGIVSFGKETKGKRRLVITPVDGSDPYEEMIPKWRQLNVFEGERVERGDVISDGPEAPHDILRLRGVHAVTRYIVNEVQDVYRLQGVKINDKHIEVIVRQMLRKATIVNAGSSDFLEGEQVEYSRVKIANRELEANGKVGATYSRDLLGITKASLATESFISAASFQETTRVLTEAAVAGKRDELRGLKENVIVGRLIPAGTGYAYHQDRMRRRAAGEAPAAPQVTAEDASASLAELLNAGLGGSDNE
Sequence of E. coli RNA polymerase σ^70 holoenzyme (P0A800 whole entry, further chain): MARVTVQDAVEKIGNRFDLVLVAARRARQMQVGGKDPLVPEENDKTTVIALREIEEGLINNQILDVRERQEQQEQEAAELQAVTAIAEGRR
Sequence of E. coli RNA polymerase σ^70 holoenzyme (P0A8V2 whole entry): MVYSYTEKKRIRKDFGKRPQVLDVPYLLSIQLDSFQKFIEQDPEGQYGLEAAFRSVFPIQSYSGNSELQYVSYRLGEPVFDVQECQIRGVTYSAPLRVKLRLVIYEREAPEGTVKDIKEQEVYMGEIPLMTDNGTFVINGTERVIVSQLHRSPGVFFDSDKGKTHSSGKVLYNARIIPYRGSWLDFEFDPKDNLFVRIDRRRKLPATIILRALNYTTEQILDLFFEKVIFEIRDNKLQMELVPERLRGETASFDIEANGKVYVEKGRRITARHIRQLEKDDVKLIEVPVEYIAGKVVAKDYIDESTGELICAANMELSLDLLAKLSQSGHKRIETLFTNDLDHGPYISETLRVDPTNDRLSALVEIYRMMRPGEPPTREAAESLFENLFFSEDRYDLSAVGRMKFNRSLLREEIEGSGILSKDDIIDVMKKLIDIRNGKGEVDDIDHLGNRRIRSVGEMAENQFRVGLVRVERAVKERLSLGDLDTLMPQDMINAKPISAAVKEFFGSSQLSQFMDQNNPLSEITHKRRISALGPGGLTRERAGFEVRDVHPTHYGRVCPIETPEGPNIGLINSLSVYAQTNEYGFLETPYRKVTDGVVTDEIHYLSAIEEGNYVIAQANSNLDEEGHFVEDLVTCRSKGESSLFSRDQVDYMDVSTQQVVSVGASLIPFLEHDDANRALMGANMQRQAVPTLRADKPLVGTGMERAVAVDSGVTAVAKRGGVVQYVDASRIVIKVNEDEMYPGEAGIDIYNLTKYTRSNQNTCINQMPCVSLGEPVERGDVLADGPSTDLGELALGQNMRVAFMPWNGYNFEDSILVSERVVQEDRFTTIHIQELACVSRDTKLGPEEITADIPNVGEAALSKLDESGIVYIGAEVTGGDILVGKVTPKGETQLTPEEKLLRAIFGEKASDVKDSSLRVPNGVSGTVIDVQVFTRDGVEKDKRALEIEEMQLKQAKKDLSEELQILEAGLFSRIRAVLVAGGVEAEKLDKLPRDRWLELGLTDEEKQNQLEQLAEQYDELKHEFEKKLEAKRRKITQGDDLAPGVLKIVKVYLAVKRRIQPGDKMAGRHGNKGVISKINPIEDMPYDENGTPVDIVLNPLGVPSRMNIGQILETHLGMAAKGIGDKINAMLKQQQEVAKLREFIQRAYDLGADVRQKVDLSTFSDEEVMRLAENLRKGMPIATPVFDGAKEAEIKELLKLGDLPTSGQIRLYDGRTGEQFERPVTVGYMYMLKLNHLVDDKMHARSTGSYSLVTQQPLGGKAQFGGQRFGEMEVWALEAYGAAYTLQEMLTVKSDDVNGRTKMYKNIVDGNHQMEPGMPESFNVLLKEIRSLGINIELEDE
Sequence of E. coli RNA polymerase σ^70 holoenzyme (P00579 whole entry, further chain): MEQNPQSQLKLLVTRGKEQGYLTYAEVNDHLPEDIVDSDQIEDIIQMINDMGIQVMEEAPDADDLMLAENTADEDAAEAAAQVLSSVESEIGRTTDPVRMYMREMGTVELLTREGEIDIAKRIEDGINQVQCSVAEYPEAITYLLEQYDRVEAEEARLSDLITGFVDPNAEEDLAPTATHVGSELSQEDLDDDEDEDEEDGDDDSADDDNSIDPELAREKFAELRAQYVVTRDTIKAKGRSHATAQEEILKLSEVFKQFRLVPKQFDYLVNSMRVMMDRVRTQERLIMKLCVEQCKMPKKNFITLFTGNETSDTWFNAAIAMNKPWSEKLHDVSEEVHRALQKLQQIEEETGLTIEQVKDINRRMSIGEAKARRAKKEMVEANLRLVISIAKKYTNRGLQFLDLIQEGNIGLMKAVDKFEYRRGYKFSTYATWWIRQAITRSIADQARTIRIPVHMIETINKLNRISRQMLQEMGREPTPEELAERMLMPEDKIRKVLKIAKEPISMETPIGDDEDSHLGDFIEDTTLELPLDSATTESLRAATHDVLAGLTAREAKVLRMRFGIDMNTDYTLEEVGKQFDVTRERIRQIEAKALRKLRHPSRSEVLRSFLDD
Sequence of E. coli RNA polymerase σ^70 holoenzyme (P0A7Z4 whole entry, further chain): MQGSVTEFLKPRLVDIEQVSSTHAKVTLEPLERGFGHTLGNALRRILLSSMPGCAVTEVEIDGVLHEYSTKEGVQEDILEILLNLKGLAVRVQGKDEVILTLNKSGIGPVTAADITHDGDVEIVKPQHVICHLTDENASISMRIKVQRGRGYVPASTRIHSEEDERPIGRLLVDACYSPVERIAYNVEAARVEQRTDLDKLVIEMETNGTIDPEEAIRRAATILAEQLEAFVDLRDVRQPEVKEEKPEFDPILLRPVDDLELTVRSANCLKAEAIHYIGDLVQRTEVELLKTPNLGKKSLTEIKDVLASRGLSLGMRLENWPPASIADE
Another assay relates to Brucella melitensis 16M. Nature of the assay: microbe, parasite or virus in culture. Format: cell-based. As to conditions: Brucella melitensis, 16M, read-out: MIC B. melitensis 16M.
Assay [7] deals with Burkholderia pseudomallei Human/Blood/OH/US/1994. Nature of the assay: microbe, parasite or virus in culture. The settings on record: Burkholderia pseudomallei, read-out: MIC B. pseudomallei Human/Blood/OH. Type of assay: cell-based.
The subject of assay [8] is Escherichia coli D21f2tolC. Nature of the assay: MIC, spiral gradient endpoint assay, E. coli D21f2tolC. Type of assay: cell-based. The settings on record: Escherichia coli, D21F2TOLC, read-out: MIC E. coli D21f2toIC.

Turning to `COC(=O)N/C=C/CCC(C)c1cc(O)c(C(=O)C(C)=Cc2ccc(OCCC(F)(F)F)cc2)c(=O)o1` (mixture of isomers) [APY126, methyl ((1E)-5-(4-hydroxy-3-(2-methyl-3-(4-(3,3,3-trifluoropropoxy)phenyl)acryloyl)-2-oxo-2H-pyran-6-yl)hex-1-en-1-yl)carbamate], the MIC was over 40 µg/mL in assay [1]; 3 µg/mL in [2]; 30 µg/mL with Yersinia pestis C092; 6 µg/mL in assay [3]; over 50 µg/mL in assay [4]; 1 µg/mL in [5]. Besides, the MIC in the assay on Burkholderia mallei CHN7 was 50 µg/mL; in the assay on Brucella melitensis 16M, 10 µg/mL; in [7], over 50 µg/mL; in [8] it was 0.3 µg/mL. For the same compound, the pIC50 in assay [6] was 7.10.
For `COC(=O)N/C=C/CCC(C)c1cc(O)c(C(=O)C(C)=Cc2ccc(OCC(F)F)s2)c(=O)o1` (mixture of isomers) [APY138, methyl ((1E)-5-(3-(3-(5-(2,2-difluoroethoxy)thiophen-2-yl)-2-methylacryloyl)-4-hydroxy-2-oxo-2H-pyran-6-yl)hex-1-en-1-yl)carbamate], the MIC in assay [1] was over 40 µg/mL; in [2], 50 µg/mL; in the assay with Yersinia pestis C092 it was 50 µg/mL; in [3], 10 µg/mL; in [4], over 50 µg/mL; in assay [5], 10 µg/mL. For the same compound, the MIC in the assay with Burkholderia mallei CHN7 was over 50 µg/mL; in the assay with Brucella melitensis 16M, 50 µg/mL; in assay [7] it was over 50 µg/mL; in assay [8] it was 0.5 µg/mL. In [6], the pIC50 is 6.52.
On to `CCCCOc1ccc(C=C(C)C(=O)c2c(O)cc(C(C)CC/C=C/NC(=O)OC)oc2=O)cc1` (mixture of isomers) [APY39, methyl (E)-5-(3-((E/Z)-3-(4-butoxyphenyl)-2-methylacryloyl)-4-hydroxy-2-oxo-2H-pyran-6-yl)hex-1-enylcarbamate], for which the MIC is over 40 µg/mL in assay [1]; 3 µg/mL in assay [2]; 30 µg/mL with Yersinia pestis C092; 3 µg/mL in [3]; 30 µg/mL in assay [4]; 1 µg/mL in assay [5]. Also, the MIC in the assay with Burkholderia mallei CHN7 was 10 µg/mL; in the assay with Brucella melitensis 16M it was 0.4 µg/mL; in assay [7] it was 50 µg/mL; in assay [8] it was 0.2 µg/mL. In addition, in [6], the pIC50 was 7.10.
With `COC(=O)N/C=C/CCC(C)c1cc(O)c(C(=O)C(C)=Cc2cccc(OCCC(C)(C)C)c2)c(=O)o1` (mixture of isomers) [APY49, methyl (E)-5-(3-((E/Z)-3-(3-(3,3-dimethylbutoxy)phenyl)-2-methylacryloyl)-4-hydroxy-2-oxo-2H-pyran-6-yl)hex-1-enylcarbamate], the MIC is over 40 µg/mL in [1]; 10 µg/mL in [2]; over 50 µg/mL in the assay with Yersinia pestis C092; 50 µg/mL in assay [3]; 30 µg/mL in assay [4]; over 40 µg/mL in [5]. Further, the MIC with Burkholderia mallei CHN7 was 50 µg/mL; in the assay with Brucella melitensis 16M, 10 µg/mL; in assay [7] it was over 50 µg/mL; in assay [8], 0.3 µg/mL. For the same compound, in [6], the pIC50 was 8.00.
As for `CCCOc1cccc(C=C(C)C(=O)c2c(O)cc(C(C)CC/C=C/NC(=O)OC)oc2=O)c1` (mixture of isomers) [APY43, methyl (E)-5-(4-hydroxy-3-((E/Z)-2-methyl-3-(3-propoxyphenyl)acryloyl)-2-oxo-2H-pyran-6-yl)hex-1-enylcarbamate], the MIC is over 40 µg/mL in assay [1]; 10 µg/mL in assay [2]; over 50 µg/mL in the assay with Yersinia pestis C092; 6 µg/mL in assay [3]; 30 µg/mL in [4]; over 40 µg/mL in assay [5]. For the same compound, the MIC in the assay with Burkholderia mallei CHN7 came out at 50 µg/mL; in the assay on Brucella melitensis 16M it was 3 µg/mL; in assay [7], 50 µg/mL; in assay [8], 0.4 µg/mL. In addition, the pIC50 in assay [6] is 6.70.
Consider `CCCCc1ncc(C=C(C)C(=O)c2c(O)cc(C(C)CC/C=C/NC(=O)OC)oc2=O)s1` (mixture of isomers) [APY136, methyl ((1E)-5-(3-(3-(2-butylthiazol-5-yl)-2-methylacryloyl)-4-hydroxy-2-oxo-2H-pyran-6-yl)hex-1-en-1-yl)carbamate], for which the MIC in assay [1] is over 40 µg/mL; in [2] it was 10 µg/mL; in the assay on Yersinia pestis C092, 10 µg/mL; in assay [3], 6 µg/mL; in assay [4], over 50 µg/mL; in assay [5], 1 µg/mL. Also, the MIC was found to be 30 µg/mL in the assay on Burkholderia mallei CHN7, 6 µg/mL in the assay on Brucella melitensis 16M, 50 µg/mL in assay [7] and 0.2 µg/mL in assay [8]. In addition, the pIC50 in assay [6] is 7.70.
For `CCCOc1ccc2c(c1)cc(C=C(C)C(=O)c1c(O)cc(C(C)CC/C=C/NC(=O)OC)oc1=O)n2C` (mixture of isomers) [APY121, methyl ((1E)-5-(4-hydroxy-3-(2-methyl-3-(1-methyl-5-propoxy-1H-indol-2-yl)acryloyl)-2-oxo-2H-pyran-6-yl)hex-1-en-1-yl)carbamate], the MIC was over 40 µg/mL in [1]; over 50 µg/mL in assay [2]; over 50 µg/mL in the assay on Yersinia pestis C092; over 50 µg/mL in [3]; over 50 µg/mL in assay [4]; over 40 µg/mL in assay [5]. For the same compound, the MIC in the assay with Burkholderia mallei CHN7 is over 50 µg/mL; in the assay on Brucella melitensis 16M, over 50 µg/mL; in assay [7] it was over 50 µg/mL; in assay [8] it was 0.8 µg/mL. For the same compound, the negative-log IC50 (pIC50) in [6] is 6.30.
In the case of `CCCCOc1cccc(C=C(C)C(=O)c2c(O)cc(C(C)CC/C=C/NC(=O)OC)oc2=O)c1` (mixture of isomers) [APY42, methyl (E)-5-(3-((E/Z)-3-(3-butoxyphenyl)-2-methylacryloyl)-4-hydroxy-2-oxo-2H-pyran-6-yl)hex-1-enylcarbamate], the MIC was over 40 µg/mL in assay [1]; 10 µg/mL in [2]; over 50 µg/mL with Yersinia pestis C092; 30 µg/mL in [3]; 50 µg/mL in [4]; over 40 µg/mL in assay [5]. Moreover, the MIC with Burkholderia mallei CHN7 was 50 µg/mL; with Brucella melitensis 16M, 6 µg/mL; in assay [7], 50 µg/mL; in [8], 0.4 µg/mL. In addition, the pIC50 in [6] is 7.52.
With `COC(=O)N/C=C/CCC(C)c1cc(O)c(C(=O)C(C)=Cc2ccc(OCC(F)F)cc2)c(=O)o1` (mixture of isomers) [APY132, methyl ((1E)-5-(3-(3-(4-(2,2-difluoroethoxy)phenyl)-2-methylacryloyl)-4-hydroxy-2-oxo-2H-pyran-6-yl)hex-1-en-1-yl)carbamate], the MIC in [1] was over 40 µg/mL; in assay [2], 30 µg/mL; in the assay with Yersinia pestis C092, over 50 µg/mL; in [3], 10 µg/mL; in [4], over 50 µg/mL; in [5], 5 µg/mL. In addition, the MIC in the assay with Burkholderia mallei CHN7 was over 50 µg/mL; in the assay on Brucella melitensis 16M it was 30 µg/mL; in assay [7] it was over 50 µg/mL; in [8], 0.7 µg/mL. In addition, the negative-log IC50 (pIC50) in assay [6] is 6.70.
`CCCCOc1ccc(C=C(C)C(=O)c2c(O)cc(C(C)CC/C=C/NC(=O)OC)oc2=O)c(C)c1` (mixture of isomers) [APY129, methyl ((1E)-5-(3-(3-(4-butoxy-2-methylphenyl)-2-methylacryloyl)-4-hydroxy-2-oxo-2H-pyran-6-yl)hex-1-en-1-yl)carbamate]: the MIC in assay [1] is 40 µg/mL; in assay [2] it was 3 µg/mL; in the assay with Yersinia pestis C092, 30 µg/mL; in assay [3], 30 µg/mL; in assay [4], over 50 µg/mL; in assay [5] it was 2 µg/mL. The MIC was 50 µg/mL in the assay with Burkholderia mallei CHN7, 10 µg/mL in the assay with Brucella melitensis 16M, over 50 µg/mL in [7] and 0.3 µg/mL in assay [8]. In addition, the pIC50 in [6] was 7.30.
